Data published in patent publication US20130310256A1, “HERBICIDAL COMPOSITIONS COMPRISING 4-AMINO-3-CHLORO-5-FLUORO-6-(4-CHLORO-2-FLUORO-3-METHOXYPHENYL) PYRIDINE-2-CARBOXYLIC ACID OR A DERIVATIVE THEREOF AND VLCFA AND LIPID SYNTHESIS INHIBITING HERBICIDES” (DOW AGROSCIENCES LLC, priority 2008, published 2013).
“And” between values parts separate entries of the source, which are not always exact repeats. Equal entries are not always repeated.

Test system: CYPRO
Experiment: Example II: in-water applied weed control, transplanted paddy rice, greenhouse
Assay type: in vivo, Cyperus rotundus L. (purple nutsedge)
In short: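 Transplanted rice and weeds at the first to fourth true leaf stage in flooded mud pots (pH ~7.6 soil), greenhouse ~29/26 °C, 14 h photoperiod. Compound A (acid equivalent) and VLCFA/lipid-synthesis herbicides (active ingredient) injected into the paddy water in 1.25% crop oil concentrate. Injury scored visually at ~3 weeks versus untreated, 0–100%.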

CCN(CC)C(=O)n1cnc(S(=O)(=O)c2c(C)cc(C)cc2C)n1 [Cafenstrole, N,N-diethyl-3-[(2,4,6-trimethylphenyl)sulfonyl]-1H-1,2,4-triazole-1-carboxamide]
Visual Weed Control CYPRO Obs (52.5 gai/ha (Himeadow WP), 21 DAA): 0%
Visual Weed Control CYPRO Obs (52.5 gai/ha (Lapost Flowable), 21 DAA): 0%
Visual Weed Control CYPRO Obs (105 gai/ha (Himeadow WP), 21 DAA): 0%
Visual Weed Control CYPRO Obs (105 gai/ha (Lapost Flowable), 21 DAA): 0%

COc1c(Cl)ccc(-c2nc(C(=O)O)c(Cl)c(N)c2F)c1F [Compound A Acid, 4-amino-3-chloro-6-(4-chloro-2-fluoro-3-methoxyphenyl)-5-fluoropyridine-2-carboxylic acid]
Visual Weed Control (%) - 20 DAA CYPRO Obs (8.75 gae/ha): 0%
Visual Weed Control (%) - 21 DAA CYPRO Obs (8.75 gae/ha): 0%
Visual Weed Control CYPRO Obs (8.75 gae/ha, 21 DAA): 0%
Visual Weed Control CYPRO Obs (17.5 gae/ha, 21 DAA): 20%
Visual Weed Control (%) - 20 DAA CYPRO Obs (35 gae/ha): 80% and 90%

COc1c(Cl)ccc(-c2nc(C(=O)OCc3ccccc3)c(Cl)c(N)c2F)c1F [Compound A Benzyl Ester, benzyl ester of 4-amino-3-chloro-5-fluoro-6-(4-chloro-2-fluoro-3-methoxy-phenyl)pyridine-2-carboxylic acid]
Visual Weed Control (%) - 21 DAA CYPRO Obs (4.38 gae/ha): 0%
Visual Weed Control CYPRO Obs (4.38 gae/ha, 20 DAA): 0%
Visual Weed Control CYPRO Obs (4.38 gae/ha, 21 DAA): 0%
Visual Weed Control CYPRO Obs (8 gae/ha, 19 DAA): 50%
Visual Weed Control (%) - 20 DAA CYPRO Obs (8.75 gae/ha): 20% and 30%
Visual Weed Control (%) - 21 DAA CYPRO Obs (8.75 gae/ha): 30%
Visual Weed Control CYPRO Obs (8.75 gae/ha, 20 DAA): 20%
Visual Weed Control CYPRO Obs (8.75 gae/ha, 21 DAA): 30%
Visual Weed Control (%) - 20 DAA CYPRO Obs (17.5 gae/ha): 95%
Visual Weed Control CYPRO Obs (17.5 gae/ha, 20 DAA): 95%

CCCOCCN(C(=O)CCl)c1c(CC)cccc1CC [Pretilachlor, 2-chloro-N-(2,6-diethylphenyl)-N-(2-propoxyethyl)acetamide]
Visual Weed Control (%) - 20 DAA CYPRO Obs (75 gai/ha): 0%
Visual Weed Control (%) - 20 DAA CYPRO Obs (150 gai/ha): 0%
